The target of experiment [1] is T1, PS:C4BP complex (Homo sapiens, UniProt P04003+P20851).
T1 construct: Purified human C4BP was obtained from 5 liters (1) of human citrated plasma; from tissue; host or cells: human citrated plasma (C4BP); protein S per Schwarz et al
T1 sequence (P04003 49-597): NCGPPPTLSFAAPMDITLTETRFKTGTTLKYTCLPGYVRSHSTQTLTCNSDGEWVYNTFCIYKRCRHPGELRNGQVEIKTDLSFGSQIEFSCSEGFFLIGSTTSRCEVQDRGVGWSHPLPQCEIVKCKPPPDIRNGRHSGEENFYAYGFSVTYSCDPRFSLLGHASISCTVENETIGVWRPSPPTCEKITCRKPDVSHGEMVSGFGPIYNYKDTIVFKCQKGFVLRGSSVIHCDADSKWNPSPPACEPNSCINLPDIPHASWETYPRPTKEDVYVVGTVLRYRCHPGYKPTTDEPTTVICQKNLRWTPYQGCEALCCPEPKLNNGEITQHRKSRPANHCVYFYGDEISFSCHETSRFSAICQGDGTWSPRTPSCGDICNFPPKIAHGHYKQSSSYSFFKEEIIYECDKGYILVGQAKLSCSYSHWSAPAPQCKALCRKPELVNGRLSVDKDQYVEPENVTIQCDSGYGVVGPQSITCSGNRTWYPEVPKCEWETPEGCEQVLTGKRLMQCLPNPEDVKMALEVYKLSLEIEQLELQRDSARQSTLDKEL
T1 sequence (P20851 18-252): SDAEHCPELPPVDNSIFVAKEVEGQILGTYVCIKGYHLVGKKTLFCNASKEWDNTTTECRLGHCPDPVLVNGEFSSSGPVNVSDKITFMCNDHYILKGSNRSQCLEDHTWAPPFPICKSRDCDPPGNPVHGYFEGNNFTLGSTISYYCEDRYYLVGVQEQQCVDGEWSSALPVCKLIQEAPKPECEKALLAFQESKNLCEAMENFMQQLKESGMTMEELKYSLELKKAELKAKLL
Kind of experiment: Fluid-phase peptide inhibition of PS binding to b-C4BP, detected on MAb S-7-coated plates. Here is the method:
(§1) An alternative approach was used to test the ability of the peptides, PSP-loop, PSP-424K and PSP-428K, in comparison with that seen with the PSP-12 peptide, in inhibiting the binding of PS to C4BP, the result of which was detected on monoclonal antibody-coated plates. For this assay, biotinylated-C4BP (b-C4BP), PS and PSP peptides were admixed together at the respective concentrations of 0.5 µg/ml, 1.0 µg/ml and at a range of 0 - 500 µM (V:V:V). The admixtures were maintained for 2 hours at room temperature on a fluid phase plate to allow the binding and/or inhibition thereof of PS to C4BP by the PS-derived peptides. After the maintenance period, 50 µl of the admixture were separately admixed to wells previously coated with 10 µg/ml of MAb S-7 (ATCC No. HB 80819). The admixtures were maintained for 1 hour at room temperature to allow for the binding of C4BP to MAb S-7-antibody-coated plates. The binding of biotinylated complexes to the antibody-coated plates was detected as described in Example 5Aii.

Experiment [2] has as its target T1, PS:C4BP complex. Kind of experiment: Fluid-phase peptide inhibition of b-PS binding to C4BP, detected on anti-C4BP polyclonal antibody-coated plates. Here is the method: as §1, with “polyclonal” for “monoclonal”, “C4BP, biotinylated-PS (b-PS)” for “biotinylated-C4BP (b-C4BP), PS”, “3” for “0.5”, “0.6” for “1.0”, “anti-C4BP IgG polyclonal antibody.” for “MAb S-7 (ATCC No. HB 80819).”, “C4BP-antibody-coated” for “MAb S-7-antibody-coated”

The target in experiment [3] is T1, PS:C4BP complex. The experiment in a line: Peptide inhibition of binding of b-C4BP to PS-coated wells. Here is the method:
An alternative approach was used to test the ability of the peptides, PSP-loop and PSP-428K, in comparison with that seen with the PSP-12 peptide, in inhibiting the binding of C4BP to PS. For this assay, the microtiter wells were coated with purified PS diluted to a concentration of 10 µg/ml in carbonate-coating buffer as described above. The wells were maintained to allow the PS to bind to the well walls. After the maintenance period, the wells were blocked also as described above. The selected PSP peptides were separately admixed at various concentrations ranging from 0 - 500 µM with biotinylated-C4BP (b-C4BP) at a concentration of 1 µg/ml. The admixtures were maintained on a fluid phase plate for 2 hours at room temperature to form peptide-C4BP complexes.
Fifty µl of the complexed admixtures were separately admixed to the prepared C4BP-coated wells and maintained for 1 hour at room temperature. Thereafter, the plate was washed and processed for developing as described above.

In experiment [4] the target is T1, PS:C4BP complex. Kind of experiment: Peptide Inhibition Assay: binding of b-PS to C4BP in solid phase. As to conditions: subsequent experiments. The procedure: Each of the peptides produced as described in Example 1 and listed in Table 1 was analyzed for its ability to inhibit the binding of native protein S in liquid-phase to C4BP in solid-phase.
Microtiter wells of a 96 well plate were coated with 50 µl of 10 µg/ml purified C4BP in carbonate buffer (0.02 M Na2CO3, pH 9.0, 0.02% Na-Azide). After blocking with 10% BSA in TBS, 50 µl of different concentrations of peptides diluted in washing buffer (TBS, 0.2% BSA, 5mM CaCl, 0.02% Tween 20) were separately admixed to C4BP-coated wells. After 2 hours at room temperature, 50 µl of a solution of biotinylated protein S, were admixed to each well to form a second binding admixture having a final concentration of 2 µg/ml. The plate was agitated and the samples were incubated 1 hour at room temperature. The samples were discarded and the wells were washed 3 times with washing buffer. To each well, 50 µl of strepavidin-alkaline-phosphatase (1 µg/ml washing buffer) were admixed and allowed to incubate for 30 minutes at room temperature. The strepavidin-alkaline-phosphatase was then discarded and the wells were washed 6 times with washing buffer. The resulting optical densities of the reaction solutions were read as described before in Example 2C.
Results of the assay are reported as percent inhibition of C4BP binding. Percent of inhibition of C4BP binding is defined as: I = 100% - 100 x (deltaT /deltaC ) [formula] • where I is expressed as a percent; and • where 100% = delta/min of the amount of b-PS which specifically bound to C4BP-coated wells in the absence of any competing PS-peptide; and • where deltaT = the change in absorbance (405 nm) in the presence of competing PS-peptide; and • where deltaC = the change in absorbance (405 nm) in the absence of competing PS-peptide.

In the next experiment the target is T2, C4BP (Homo sapiens, UniProt P04003+P20851).
T2 sequence (P04003 49-597): T1 sequence (P04003 49-597)
T2 sequence (P20851 18-252): T1 sequence (P20851 18-252)
As to conditions: in vitro; cited from earlier work.

Experiment [5] concerns the target T3, C4b binding protein (human, UniProt P04003 49-597; P20851 18-252).
T3 construct: mature; The beta chain is added from general knowledge; Biotinylated (b-C4BP) in some assays; also called C4BP; purified human C4BP
T3 sequence (looked up) 1: T1 sequence (P04003 49-597)
T3 sequence (looked up) 2: T1 sequence (P20851 18-252)
The experiment in a line: Competition ELISA, peptide preincubated with b-C4BP, PS-coated wells. Background: An ELISA detects its analyte on a solid surface through an enzyme-linked reagent.

Experiment [6] concerns the target T3, C4b binding protein. The experiment in a line: Fluid-phase competition of C4BP, b-PS and peptide; capture on anti-C4BP polyclonal IgG.
The target in experiment [7] is T3, C4b binding protein. The experiment in a line: Fluid-phase competition of b-C4BP, PS and peptide; capture on MAb S-7.

Bridge positions count the residues as written; N and C are the ends. Ends that are not written are not given here. Peptide text beside a SMILES is read from it.

Take `CC[C@H](C)[C@H](NC(=O)CNC(=O)[C@@H](N)CO)C(=O)N[C@@H](CCCCN)C(=O)N[C@@H](CCCCN)C(=O)N[C@H](C(=O)N[C@H](C(=O)N[C@@H](CCC(N)=O)C(=O)N[C@@H](CCC(=O)O)C(=O)N[C@@H](CCCCN)C(=O)N[C@@H](CCC(N)=O)C(=O)N[C@@H](CC(N)=O)C(=O)N[C@@H](CCCCN)C(=O)N[C@@H](CS)C(N)=O)[C@@H](C)CC)[C@@H](C)CC` [PSP-424K] (H-SGIKKIIQEKQNKC-NH2): the IC50 on PS:C4BP complex [1] (b-C4BP 0.5 µg/ml, PS 1.0 µg/ml, peptide 0 - 500 µM) was about 50 µM; on PS:C4BP complex [3] (b-C4BP 1 µg/ml, PS-coated wells, peptide 0 - 500 µM, read-out: half-maximal inhibitory concentration (IC50)), about 50 µM. For the same molecule, the IC90 (usually the point of the concentration-response curve where the effect stands at 90%) was about 250 µM on PS:C4BP complex [1] (b-C4BP 0.5 µg/ml, PS 1.0 µg/ml, peptide 0 - 500 µM, read-out: IC90) and about 250 µM at PS:C4BP complex [3] (b-C4BP 1 µg/ml, PS-coated wells, peptide 0 - 500 µM, read-out: IC90). At PS:C4BP complex [2] (compared with PSP-loop), the “inhibition of the binding of b-PS to C4BP” value is given as “also inhibitory but with lower effectiveness”.
As to `CC[C@H](C)[C@@H]1NC(=O)[C@H](CO)NC(=O)[C@H](C)NC(=O)CNC(=O)[C@H](CCC(N)=O)NC(=O)[C@H](CCCCN)NC(=O)[C@H](CCSC)NC(=O)[C@H](CC(C)C)NC(=O)[C@H](CC(N)=O)NC(=O)[C@H](Cc2c[nH]c3ccccc23)NC(=O)[C@H](CO)NC(=O)[C@H](CCCNC(=N)N)NC(=O)[C@H]([C@@H](C)CC)NC(=O)[C@@H](N)CSSC[C@@H](C(N)=O)NC(=O)[C@H](Cc2c[nH]cn2)NC(=O)[C@H](CCCCN)NC(=O)[C@H](CC(N)=O)NC(=O)[C@H](CCC(N)=O)NC(=O)[C@H](CCCCN)NC(=O)[C@H](CCC(=O)O)NC(=O)[C@H](CCC(N)=O)NC(=O)[C@H]([C@@H](C)CC)NC(=O)[C@H]([C@@H](C)CC)NC(=O)[C@H](CCC(=O)O)NC(=O)[C@H](CCCCN)NC1=O` [PSP-loop] (H-CIRSWNLMKQGASIKEIIQEKQNKHC-NH2; disulfide 1-26; N-terminus assumed), the results for the IC90 at PS:C4BP complex [1], at PS:C4BP complex [2] and on PS:C4BP complex [3] were about 100 µM, about 400 µM and 50 µM, respectively. Also, the “peptide concentration that completely inhibits the binding of PS to C4BP” value at PS:C4BP complex [4] was “approximately 250 µM”.
“GVQLDLDEAI [synthetic peptide derived from the carboxy terminal region of protein S (residues 605 to 614 of mature PS)]”: the “effect on the interaction of protein S with C4BP” value in the experiment with C4BP was “inhibits the interaction of protein S with C4BP in vitro”.
Consider CIRSWNLMKQGASIKEIIQEKQNKHC-NH2 (cysteine pairing not given here, also called loop peptide) [PSP-loop], for which the IC50 with C4b binding protein [5] was about 15 µM; with C4b binding protein [6], about 40 µM; with C4b binding protein [7], about 35 µM. This molecule had an IC90 in the experiment with C4b binding protein [5] of 50 µM.
